Experimental data reported in patent US6737383B1, “Herbicidal oxadiazolidines” (priority 1999, dated 2004).

Tests used:
velvetleaf = experiment: Test B pre/postemergence velvetleaf; type: in vivo, Abutilon theophrasti; settings: for Plant response rating, Velvetleaf: Postemergence
Outline: (§1)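 Test chemicals in a non-phytotoxic solvent mixture with surfactant were sprayed preemergence onto planted seeds and postemergence onto plants 2 to 18 cm tall (1- to 4-leaf stage). After twelve to sixteen days in a greenhouse, injury was visually rated against untreated controls from 0 (no effect) to 10 (complete control).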

wild oat = experiment: Test B pre/postemergence wild oat; type: in vivo, Avena fatua; settings: for Plant response rating, Wild oats: Postemergence
Outline: as §1

rape = experiment: Test B pre/postemergence rape; type: in vivo, Brassica napus
Outline: as §1

pigweed = experiment: Test B pre/postemergence pigweed; type: in vivo, Amaranthus retroflexus; settings: for Plant response rating, Redroot pigweed: Postemergence
Outline: as §1

cocklebur = experiment: Test B pre/postemergence cocklebur; type: in vivo, Xanthium strumarium
Outline: as §1

sugar beet = experiment: Test B pre/postemergence sugar beet; type: in vivo, Beta vulgaris; settings: for Plant response rating, Sugarbeets: Postemergence
Outline: as §1

wheat = experiment: Test B pre/postemergence wheat; type: in vivo, Triticum aestivum; settings: for Plant response rating, Wheat: Postemergence
Outline: as §1

purple nutsedge = experiment: Test B pre/postemergence purple nutsedge; type: in vivo, Cyperus rotundus
Outline: as §1

soybean = experiment: Test B pre/postemergence soybean; type: in vivo, Glycine max; settings: for Plant response rating, Soybean: Postemergence
Outline: as §1

morningglory = experiment: Test B pre/postemergence morningglory; type: in vivo, Ipomoea hederacea
Outline: as §1

giant foxtail = experiment: Test B pre/postemergence giant foxtail; type: in vivo, Setaria faberii
Outline: as §1

surinam grass = experiment: Test B pre/postemergence surinam grass; type: in vivo, Brachiaria decumbens
Outline: as §1

crabgrass = experiment: Test B pre/postemergence crabgrass; type: in vivo, Digitaria sanguinalis
Outline: as §1

blackgrass = experiment: Test B pre/postemergence blackgrass; type: in vivo, Alopecurus myosuroides
Outline: as §1

corn = experiment: Test B pre/postemergence corn; type: in vivo, Zea mays
Outline: as §1

bedstraw = experiment: Test B pre/postemergence bedstraw; type: in vivo, Galium aparine
Outline: as §1

[1] = Rate 500 g/ha, scale of 0 to 10 where 0 is no effect and 10 is complete control
[2] = Preemergence, Rate 62 g/ha, scale 0 to 10 (0 no effect, 10 complete control)
[3] = Preemergence, Rate 125 g/ha, scale of 0 to 10 where 0 is no effect and 10 is complete control
[4] = Preemergence, Rate 500 g/ha, scale of 0 to 10 where 0 is no effect and 10 is complete control
[5] = Rate 250 g/ha, scale of 0 to 10 where 0 is no effect and 10 is complete control
[6] = Postemergence, Rate 62 g/ha, scale of 0 to 10, 0 is no effect, 10 is complete control
[7] = Postemergence, Rate 125 g/ha, scale 0 to 10, 0 is no effect, 10 is complete control
[8] = Postemergence, Rate 500 g/ha, scale of 0 to 10 where 0 is no effect and 10 is complete control
[9] = Rate 250 g/ha, Postemergence, scale of 0 to 10 where 0 is no effect and 10 is complete control

CC(C)N(C(=O)n1oc(=O)n(COCc2ccccc2)c1=O)c1ccccc1 [Compound 579]
5: Plant response rating, Giant foxtail (giant foxtail; [9]) | Plant response rating, Blackgrass (blackgrass; [8])
8: Giant foxtail plant response rating (giant foxtail; [2]) | Plant response rating, Crabgrass (crabgrass; [8])
2: Redroot pigweed plant response rating (0 to 10 scale) (pigweed; Preemergence, Rate 250 g/ha) | Giant foxtail plant response rating (giant foxtail; [7]) | Plant response rating, B. signalgrass (surinam grass; [8]) | B. signalgrass plant response rating (0 to 10 scale, 0 is no effect, 10 is complete control) (surinam grass; Preemergence, Rate 250 g/ha) | Plant response rating, B. signalgrass (surinam grass; [9]) | Plant response rating, Blackgrass (blackgrass; [9])
4: Plant response rating, Soybean (soybean; [1])
3: Plant response rating, Rape (rape; [8]) | Plant response rating, Redroot pigweed (pigweed; [1]) | Redroot pigweed plant response rating (pigweed; [4]) | Nutsedge plant response rating (purple nutsedge; [4]) | Plant response rating, Soybean (soybean; [5]) | B. signalgrass plant response rating (surinam grass; [4]) | Corn plant response rating (corn; [4])
10: Morningglory plant response rating (morningglory; [6]) | Morningglory plant response rating (morningglory; [7]) | Plant response rating, Morningglory (morningglory; [8]) | Plant response rating, Morningglory (morningglory; [9]) | Giant foxtail plant response rating (0 to 10 scale) (giant foxtail; Preemergence, Rate 250 g/ha) | Giant foxtail plant response rating (giant foxtail; [4]) | Crabgrass plant response rating (0 to 10 scale) (crabgrass; Preemergence, Rate 250 g/ha) | Crabgrass plant response rating (crabgrass; [4]) | Plant response rating, Bedstraw (bedstraw; [9])
9: Giant foxtail plant response rating (giant foxtail; [3])
6: Crabgrass plant response rating (crabgrass; [7]) | Plant response rating, Crabgrass (crabgrass; [9])
7: Plant response rating, Giant foxtail (giant foxtail; [8]) | Crabgrass plant response rating (crabgrass; [2]) | Crabgrass plant response rating (crabgrass; [3])
0: Plant response rating, Velvetleaf (velvetleaf; [1]) | Velvetleaf plant response rating (velvetleaf; [2]) | Velvetleaf plant response rating (velvetleaf; [3]) | Velvetleaf plant response rating (0 to 10 scale) (velvetleaf; Preemergence, Rate 250 g/ha) | Velvetleaf plant response rating (velvetleaf; [4]) | Plant response rating, Velvetleaf (velvetleaf; [5]) | Plant response rating, Wild oats (wild oat; [1]) | Wild oats plant response rating (wild oat; [2]) | Wild oats plant response rating (wild oat; [3]) | Wild oats plant response rating (0 to 10 scale) (wild oat; Preemergence, Rate 250 g/ha) | Wild oats plant response rating (wild oat; [4]) | Plant response rating, Wild oats (wild oat; [5]) | Rape plant response rating (rape; [6]) | Rape plant response rating (rape; [7]) | Rape plant response rating (rape; [2]) | Rape plant response rating (rape; [3]) | Rape plant response rating (0 to 10 scale) (rape; Preemergence, Rate 250 g/ha) | Rape plant response rating (rape; [4]) | Plant response rating, Rape (rape; [9]) | Redroot pigweed plant response rating (pigweed; [2]) | Redroot pigweed plant response rating (pigweed; [3]) | Plant response rating, Redroot pigweed (pigweed; [5]) | Cocklebur plant response rating (cocklebur; [6]) | Cocklebur plant response rating (cocklebur; [7]) | Plant response rating, Cocklebur (cocklebur; [8]) | Cocklebur plant response rating (cocklebur; [2]) | Cocklebur plant response rating (cocklebur; [3]) | Cocklebur plant response rating (0 to 10 scale) (cocklebur; Preemergence, Rate 250 g/ha) | Cocklebur plant response rating (cocklebur; [4]) | Plant response rating, Cocklebur (cocklebur; [9]) | Plant response rating, Sugarbeets (sugar beet; [1]) | Sugarbeets plant response rating (sugar beet; [2]) | Sugarbeets plant response rating (sugar beet; [3]) | Sugarbeets plant response rating (0 to 10 scale) (sugar beet; Preemergence, Rate 250 g/ha) | Sugarbeets plant response rating (sugar beet; [4]) | Plant response rating, Sugarbeets (sugar beet; [5]) | Plant response rating, Wheat (wheat; [1]) | Wheat plant response rating (wheat; [2]) | Wheat plant response rating (wheat; [3]) | Wheat plant response rating (0 to 10 scale) (wheat; Preemergence, Rate 250 g/ha) | Wheat plant response rating (wheat; [4]) | Plant response rating, Wheat (wheat; [5]) | Nutsedge plant response rating (purple nutsedge; [7]) | Nutsedge plant response rating (purple nutsedge; [2]) | Nutsedge plant response rating (purple nutsedge; [3]) | Nutsedge plant response rating (0 to 10 scale) (purple nutsedge; Preemergence, Rate 250 g/ha) | Plant response rating, Nutsedge (purple nutsedge; [9]) | Soybean plant response rating (soybean; [2]) | Soybean plant response rating (soybean; [3]) | Soybean plant response rating (0 to 10 scale) (soybean; Preemergence, Rate 250 g/ha) | Soybean plant response rating (soybean; [4]) | Morningglory plant response rating (morningglory; [2]) | Morningglory plant response rating (morningglory; [3]) | Morningglory plant response rating (0 to 10 scale) (morningglory; Preemergence, Rate 250 g/ha) | Morningglory plant response rating (morningglory; [4]) | Giant foxtail plant response rating (giant foxtail; [6]) | B. signalgrass plant response rating (surinam grass; [6]) | B. signalgrass plant response rating (surinam grass; [7]) | B. signalgrass plant response rating (surinam grass; [2]) | B. signalgrass plant response rating (surinam grass; [3]) | Crabgrass plant response rating (crabgrass; [6]) | Blackgrass plant response rating (blackgrass; [6]) | Blackgrass plant response rating (blackgrass; [7]) | Blackgrass plant response rating (blackgrass; [2]) | Blackgrass plant response rating (blackgrass; [3]) | Blackgrass plant response rating (0 to 10 scale) (blackgrass; Preemergence, Rate 250 g/ha) | Blackgrass plant response rating (blackgrass; [4]) | Corn plant response rating (corn; [6]) | Corn plant response rating (corn; [7]) | Plant response rating, Corn (corn; [8]) | Corn plant response rating (corn; [2]) | Corn plant response rating (corn; [3]) | Corn plant response rating (0 to 10 scale) (corn; Preemergence, Rate 250 g/ha) | Plant response rating, Corn (corn; [9]) | Bedstraw plant response rating (bedstraw; [6]) | Bedstraw plant response rating (bedstraw; [7]) | Bedstraw plant response rating (bedstraw; [2]) | Bedstraw plant response rating (bedstraw; [3]) | Bedstraw plant response rating (0 to 10 scale) (bedstraw; Preemergence, Rate 250 g/ha) | Bedstraw plant response rating (bedstraw; [4])
